Experimental data published in article doi:10.1101/2025.08.13.670122v1 (bioRxiv, 2025).

Tests used:
Sprague-Dawley rats = assay: Simultaneous in vivo echocardiography and blood pressure measurements; design: species or system rat; details: intrajugular perfusion 0.96 nmol kg−1 min−1, n = 4; for Change in left ventricular ejection fraction (ΔEF) / cardiac contractility: isoflurane-anesthetized Sprague-Dawley rats; for Change in mean arterial blood pressure (ΔMABP): isoflurane-anesthetized normotensive Sprague-Dawley rats
Protocol: All ligands were administered intravenously at the same dose (0.96 nmol kg^−1 min^−1), by instrumentalizing adult Sprague-Dawley rats for simultaneous recordings of arterial blood pressure and cardiac function (Figure 5A).
Figure 5. Simultaneous in vivo cardiac ultrasound imaging and blood pressure monitoring of adult Sprague-Dawley rats following constant administration of AT1R ligands. (A) The acquisition setup for each isoflurane-anesthetized rat includes a catheter in the right femoral artery connected to a TDX300 Micro-med transducer and BPA-100c blood pressure (BP) analyzer for continuous BP measurement, while drug administration is performed via a catheter inserted in the left jugular vein and linked to an automatic syringe pump set at a flow rate of 30 µl*min^−1. […] The syringe pump is initiated at 0 s, and the catheter’s saline dead volume is flushed in approximately 180 s.
Figure 6. […] Changes in mean arterial blood pressure (ΔMABP; A), ejection fraction (ΔEF; B), left ventricular end-systolic (ΔLVES; C) and end-diastolic (ΔLVEDV; D) volumes, and stroke volume (ΔSV; E) were measured from simultaneous in vivo cardiac blood pressure monitoring and ultrasound imaging. […] The syringe pump is initiated at 0 s, and the catheter’s saline dead volume is flushed in approximately 180 s. […] Statistical analyses were performed with an unpaired standard t-test. * p < 0.05, ** p < 0.01 and ***p<0.005.
Male Sprague-Dawley rats (230–350 g, 7–9 weeks of age) were initially anesthetized with 5% isoflurane (mixed with 100% oxygen at a flow rate of 2.5 L/min). The animal was placed in a supine position on a thermostatic pad set at 37°C, and anesthesia was maintained with 2% isoflurane, confirmed by the absence of reflexes to toe pinch. The right femoral artery was cannulated with a PE 50 catheter filled with heparinized saline (10 units/mL) and connected to a Micro-Med transducer (TDX-300) and a Micro-Med blood pressure analyzer (BPA-100c). The left jugular vein was also cannulated with a PE 50 catheter filled with heparinized saline (10 units/mL) and connected to a syringe operated by an automatic pump with a flow rate of 30 µL min-1. […] Blood pressure parameters were continuously obtained throughout the experiment, and heart function parameters were simultaneously captured at various time points using a Vevo3100 echocardiography system equipped with an MX250 ultrasound probe (FUJIFILM VisualSonics). The ejection fraction was determined from a parasternal long-axis view of the left ventricle in B-mode imaging and analyzed using Vevo LAB 5.7.1 (FUJIFILM VisualSonics). Data were presented as the mean ± SEM of four different rats per group. Statistical analyses were conducted with standard analysis of variance (ANOVA) followed by Tukey’s multiple comparisons test. […]

endogenous AT1R [1] = biological target: T1, endogenous AT1R (Rattus norvegicus, UniProt P25095); assay: Rho BRET sensor in rat primary VSMC with endogenous AT1R; type: cell-based; details: adenoviral Rho BRET sensor, 1 min 30 s stimulation, mean ± SEM of at least three to five independent experiments, read-out: EC50 Rho in VSMCs
T1 construct: expressing low levels of endogenous AT1R; endogenous in cells; host or cells: rat primary VSMC, passages 13-15
T1 sequence (P25095 1-359): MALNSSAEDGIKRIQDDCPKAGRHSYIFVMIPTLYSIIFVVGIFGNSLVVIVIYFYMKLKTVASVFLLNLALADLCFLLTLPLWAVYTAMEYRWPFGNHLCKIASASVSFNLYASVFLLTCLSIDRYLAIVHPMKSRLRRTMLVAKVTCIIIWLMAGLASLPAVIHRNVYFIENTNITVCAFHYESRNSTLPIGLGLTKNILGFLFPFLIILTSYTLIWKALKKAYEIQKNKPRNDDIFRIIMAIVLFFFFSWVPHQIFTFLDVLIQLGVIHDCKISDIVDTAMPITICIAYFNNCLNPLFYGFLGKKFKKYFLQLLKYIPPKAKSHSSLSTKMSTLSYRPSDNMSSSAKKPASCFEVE
Description: (§1) We next assessed the analogs’ ability to engage Gαq by assessing either the PKC or Rho responses in rat primary vascular smooth muscle cell (VSMC) culture, expressing low levels of endogenous AT1R (between 25–50 fmol/mg) (Figure 4, Table 6).
(§2) The coding regions of the PKC-c1b sensor, PKN-RBD-RlucII, and rGFPcaax were PCR-amplified and subcloned into the KpnI/XhoI sites of the pENTR3C vector (Invitrogen), respectively. These were then transferred into the adenoviral expression vector pAd/CMV/V5-DEST (Invitrogen), via gateway cloning (pAD-CMV-PKC-c1b, pAD-CMV-PKN-RBD-RLucII, and pAD-CMV-rGFPcaax). Viruses containing the sensor codes were generated following a previously outlined process.[49] […] The following day, cells were transfected with 4 µg of PacI-digested pAd5-CMVsensors using Lipofectamine 2000 (Invitrogen). After 7–10 days post-transfection, mature virus particles were gleaned via the collection of cells and media, which then underwent multiple cycles of freezing and thawing, followed by centrifugation. The harvested virus was amplified by re-infection on 100-mm dishes of confluent HEK293A cells, and harvested 48-72 h later. Viral titers were determined by serial dilution of adenovirus stock and subsequent infection of HEK293A cells in 96-well plates. 36 h after infection, cells were stained using an anti-hexon antibody (ab8249; Abcam), and hexon-expressing cells were tallied via fluorescence microscopy. The virus was then stored at −80°C. After this, rat VSMCs (between the 13th to 15th passages) were seeded at a density of 20,000 cells in each well of white 96-well plates 24 h before transduction with the viral vector. The cells were then transduced with the PKC sensor-adenovirus (3 μL per well) or Rho sensor (1 μL each per well of PKN-RBD-RLucII-adnovirus and rGFP-caax adenovirus). After 24 h, the medium was replaced. 48 h post-viral transduction, the cells were thoroughly washed with Tyrode’s buffer. Finally, BRET assays were carried out as detailed below.
(§3) On the day of the experiment, each well was washed with 80 µL of Tyrode’s buffer (140 mM NaCl, 2.7 mM KCl, 1 mM CaCl2, 12 mM NaHCO3, 5.6 mM D-glucose, 0.5 mM MgCl2, 0.37 mM NaH2PO4, 25 mM Hepes (pH 7.4)). This was followed by incubation for 1 h in Tyrode’s buffer at room temperature. For the Gαq, β-arrestin-2, and PKC biosensors used in HEK293 cells, coelenterazine 400A (at a final concentration of 5 μM) was added 10 min before stimulation. Cells were then stimulated with increasing doses of the indicated ligand, and BRET signals were measured using a Tristar2 (Berthold) microplate reader 10 min later. For the PKC and Rho biosensors in VSMCs, and the Rho biosensor in ΔG12/13 cells, cells were similarly stimulated with ligands for 1 min, 1 min 30 s, and 3 min, respectively, before BRET measurement. […] BRET signals were then measured using a Synergy2 (BioTek) microplate reader. The applied filter set was 410/80 nm and 515/30 nm, designed to detect the light emissions of RlucII (Renilla luciferase) (donor) and rGFP (acceptor), respectively.

endogenous AT1R [2] = biological target: T1, endogenous AT1R; assay: PKC BRET sensor in rat primary VSMC with endogenous AT1R; type: cell-based; details: adenoviral PKC BRET sensor, 1 min stimulation, mean ± SEM of at least three to five independent experiments, read-out: EC50 PKC in VSMCs
Description: as §1, §2, §3

Plasma stability = type: in vitro ADME; details: male Sprague-Dawley rat plasma, 6 μL of 1 mM compound (10% DMSO) in 27 μL plasma, 37°C, 0-24 h, UPLC-MS, one-phase decay, mean ± SEM of at least three experiments, read-out: Plasmatic half-life t1/2 (±SEM)
Protocol: The degradation was quenched by adding 140 μL of 1% formic acid in an acetonitrile-ethanol (1:1) solution containing 0.25 mM of N,N-dimethylbenzamide (used as an internal standard). This mixture was initially transferred to an Impact Protein Precipitation filter plate (Phenomenex, California), the filtrates from which were subsequently collected in a second 96-well UPLC plate. Both plates were centrifuged at 500 g for 10 min while maintaining a temperature of 4°C. The filtrates were then diluted with 30 μL of distilled water and processed for analysis using an Acquity UPLC-MS system class H (using an Acquity UPLC protein BEH C18 column that measured 2.1 mm × 50 mm and had 1.7 μm particles with pores 130 Å in width). The peptide half-life, derived from the degradation curve, was calculated using the exponential one-phase decay function in GraphPad Prism 9. Degradation was estimated by comparing the mass spectrum at each point with those at the zero-minute mark. The data were presented as a mean ± SEM of at least three unique experiments, each performed in singlicate.

Row | EC50 (endogenous AT1R [1]) | EC50 (endogenous AT1R [2]) | half-life at 182 µM (Plasma stability) | Compound | Change in left ventricular ejection fraction (ΔEF) / cardiac contractility (Sprague-Dawley rats) | Change in mean arterial blood pressure (ΔMABP) (Sprague-Dawley rats)
1 |  |  |  | CC[C@H](C)[C@H](NC(=O)[C@H](Cc1ccc(O)cc1)NC(=O)[C@@H](NC(=O)[C@H](CCCNC(=N)N)NC(=O)[C@@H](N)CC(=O)O)C(C)C)C(=O)N[C@@H](Cc1c[nH]cn1)C(=O)N1CCC[C@H]1C(=O)N[C@@H](Cc1ccccc1)C(=O)O [AngII, Angiotensin II] | significant decrease in cardiac ejection fraction of the left ventricle | rapid and sustained increase in arterial blood pressure
2 |  |  |  | CCCc1nc(C(C)(C)O)c(C(=O)O)n1Cc1ccc(-c2ccccc2-c2nnn[nH]2)cc1 [Olmesartan] | did not alter the cardiovascular parameters measured | did not alter the cardiovascular parameters measured
3 | > 10 µM | > 10 µM | 16.1 ± 1.2 h | CC[C@H](C)[C@H](NC(=O)[C@H](Cc1ccc(O)cc1)NC(=O)[C@@H](NC(=O)[C@H](CCCNC(=N)N)NC(=O)CNC)C(C)C)C(=O)N[C@@H](Cc1cnc[nH]1)C(=O)N1CCC[C@H]1C(=O)N[C@H](C)C(=O)O [TRV027, reference compound] |  | 
